Converted amounts (≈) assume the structure as drawn. The source made the active and inactive calls. No cut-off for these calls is given here.
How the values were obtained:
Human betaherpesvirus 5 [1] = assay: Compound was tested in vitro for cytotoxic activity against HCMV (Human cytomegalovirus); type: functional
Human betaherpesvirus 5 [2] = assay: Compound was tested in vitro for inhibitory activity against HCMV (Human cytomegalovirus); type: functional, organism-based
F2002 cell line [3] = assay: Compound was tested in vitro for inhibitory activity against HCMV (Human cytomegalovirus) in Flow 2002 cells; type: functional, cell-based
F2002 cell line [4] = assay: Compound was tested in vitro for cytotoxic activity against HCMV (Human cytomegalovirus) in Flow 2002 cells; type: functional
Human betaherpesvirus 5 [5] = assay: Compound (up to 100 ug/mL) was tested in vitro for inhibitory activity against HCMV (Human cytomegalovirus); Inactive; type: functional, organism-based
WI-38 [6] = assay: Compound was tested in vitro for cytotoxic activity against HCMV (Human cytomegalovirus) in WI38 cells; type: functional
WI-38 [7] = assay: Compound was tested in vitro for inhibitory activity against HCMV (Human cytomegalovirus) in WI38 cells; type: functional, cell-based
[8] = Compound was tested for selectivity index of […]; type: functional

Question: For `Nc1nc2c(ncn2COC(CO)CO)c(=O)[nH]1` [GANCICLOVIR], which CC50 (Human betaherpesvirus 5 [1]) is on record?
Answer: > 100 µg/mL

Question: And the IC50 (Human betaherpesvirus 5 [2])?
Answer: 0.1 µg/mL (≈ 0.392 µM)

Question: What does the source list for `Nc1ncnc2c1ncn2[C@@H]1COCC1O` (stereo partly drawn)?
Answer: IC50 (F2002 cell line [3]): > 100 µg/mL; CC50 (F2002 cell line [4]): > 100 µg/mL

Question: For `Nc1ncnc2c1ncn2C1COCC1OCP(=O)(O)O` (stereo not drawn), which Activity (Human betaherpesvirus 5 [5]) is on record?
Answer: inactive

Question: Which results are given for `Nc1ccn(C2COCC2O)c(=O)n1` (stereo not drawn)?
Answer: IC50 (F2002 cell line [3]): > 100 µg/mL; CC50 (F2002 cell line [4]): 100 µg/mL (≈ 507 µM)

Question: For `O=c1ccn([C@@H]2COCC2OCP(=O)(O)O)c(=O)[nH]1` (stereo partly drawn), which IC50 (F2002 cell line [3]) is on record?
Answer: > 100 µg/mL

Question: What about the CC50 (F2002 cell line [4]) of the same molecule?
Answer: 100 µg/mL (≈ 342 µM)

Question: Which results are given for `Nc1ncnc2c1ncn2C1COCC1O` (stereo not drawn)?
Answer: CC50 (WI-38 [6]): 100 µg/mL (≈ 452 µM); IC50 (WI-38 [7]): > 50 µg/mL

Question: Which CC50 (WI-38 [6]) does the source give for `N.Nc1ccn([C@@H]2COCC2OCP(=O)(O)O)c(=O)n1` (stereo partly drawn) here?
Answer: > 100 µg/mL

Question: And the IC50 (WI-38 [7])?
Answer: > 50 µg/mL

Question: With `Nc1ncnc2c1ncn2[C@@H]1COCC1OCP(=O)(O)O` (stereo partly drawn) as the molecule, how does the Activity (Human betaherpesvirus 5 [5]) read?
Answer: inactive

Question: For `O=c1ccn([C@@H]2COCC2O)c(=O)[nH]1` (stereo partly drawn), which IC50 (F2002 cell line [3]) is on record?
Answer: > 100 µg/mL

Question: What about the CC50 (F2002 cell line [4]) of the same molecule?
Answer: > 100 µg/mL

Question: With `O=c1ccn(C2COCC2OCP(=O)(O)O)c(=O)[nH]1` (stereo not drawn) as the molecule, how does the IC50 (F2002 cell line [3]) read?
Answer: > 100 µg/mL

Question: What about the CC50 (F2002 cell line [4]) of the same molecule?
Answer: > 100 µg/mL

Question: Which CC50 (WI-38 [6]) does the source give for `N.Nc1ccn(C2COCC2OCP(=O)(O)O)c(=O)n1` (stereo not drawn) here?
Answer: > 100 µg/mL

Question: And the IC50 (WI-38 [7])?
Answer: > 100 µg/mL

Question: For `Nc1ccn([C@@H]2COCC2O)c(=O)n1` (stereo partly drawn), which IC50 (F2002 cell line [3]) is on record?
Answer: 3 µg/mL (≈ 15.2 µM)

Question: And the Selectivity index [8]?
Answer: 33

Question: What about the CC50 (F2002 cell line [4]) of the same molecule?
Answer: 100 µg/mL (≈ 507 µM)

From ChEMBL document CHEMBL1130572, “Synthesis and anti HCMV activity of 3,4-disubstituted tetrahydrofuran derived nucleosides and nucleotides: A tethered series of PME derivatives” (Bioorg Med Chem Lett, 1997)
